This passage reports solubility and Activity results from ChEMBL document CHEMBL1150735, “Phytochemical and pharmacological investigation of the cardioactive constituents of the leaf of Dysoxylum lenticellare” (J Nat Prod, 1987).

The nature of data set [1]: Solubility in water. Type of data set: physicochemical. Particulars: buffer.
Data set [2] can be described thus: Cardiovascular activity in spontaneously beating rat right atria assessed as change in rate of contraction at 80 uM by microdynameter relative to control. In kind it is functional. Particulars: Right cardiac atrium.
Data set [3] in a line: Cardiovascular activity in spontaneously beating rat right atria assessed as change in amplitude of contraction at 80 uM by microdynameter relative to control. In kind it is functional. To be noted: Right cardiac atrium.

SMILES strings stand for the structures.

For `COc1cc2c(cc1OC)-c1cc3c(cc1CCCN(C)CC2)OCO3` [DYSAZECINE], the solubility entry in data set [1] is given as “Insoluble”. Take `CO[C@H]1CC=C2CCN3CCC(O)c4cc5c(cc4[C@]23C1)OCO5` (stereo partly drawn): the Activity was -6% in data set [2] and 11.5% in data set [3].

With `COc1cc2c(cc1OC)[C@@H](CCc1ccc3c(c1)OCO3)N(C)CC2`, the Activity in data set [2] is -6.4%; in data set [3], 11.8%.

On to `COc1ccc(CC[C@@H]2c3cc(OC)c(OC)cc3CCN2C)cc1OC`, for which the Activity in data set [2] was -6.7%; in data set [3], 16.3%. As for `C=C1C[C@]23CC[C@@H]4C(C)(C)CCC[C@@]4(C)[C@@H]2CC[C@H]1C3` [PHYLLOCLADENE], the solubility entry in data set [1] is listed as “Insoluble”.
